Measurements: publication PMC10035947, “Development of novel anilinoquinazoline-based carboxylic acids as non-classical carbonic anhydrase IX and XII inhibitors” (Journal of Enzyme Inhibition and Medicinal Chemistry, 2023)

Assays:
SF-268 = assay: NCI SRB assay; format: cell-based, human
MCF7 = assay: NCI SRB assay; format: cell-based, human
SNB-19 = assay: NCI SRB assay; format: cell-based, human
NCI-H226 = assay: NCI SRB assay; format: cell-based, human
KM12 = assay: NCI SRB assay; format: cell-based, human
SNB-75 = assay: NCI SRB assay; format: cell-based, human
NCI-H23 = assay: NCI SRB assay; format: cell-based, human
HCT-116 = assay: NCI SRB assay; format: cell-based, human
SF-295 = assay: NCI SRB assay; format: cell-based, human
NCI-H460 = assay: NCI SRB assay; format: cell-based, human
NCI-H322M = assay: NCI SRB assay; format: cell-based, human
ACHN = assay: NCI SRB assay; format: cell-based, human
EKVX = assay: NCI SRB assay; format: cell-based, human
LOX IMVI = assay: NCI SRB assay; format: cell-based, human
SN12C = assay: NCI SRB assay; format: cell-based, human; conditions: SN12C, 1.00E-5 Molar
HT29 = assay: NCI SRB assay; format: cell-based, human
OVCAR-4 = assay: NCI SRB assay; format: cell-based, human
786-0 = assay: NCI SRB assay; format: cell-based, human
K-562 = assay: NCI SRB assay; format: cell-based, human
BT-549 = assay: NCI SRB assay; format: cell-based, human
T-47D = assay: NCI SRB assay; format: cell-based, human
OVCAR-8 = assay: NCI SRB assay; format: cell-based, human
SK-MEL-2 = assay: NCI SRB assay; format: cell-based, human
SK-OV-3 = assay: NCI SRB assay; format: cell-based, human
CCRF-CEM = assay: NCI SRB assay; format: cell-based, human
MOLT-4 = assay: NCI SRB assay; format: cell-based, human
[1] = test system: 59 human cancer cell lines representing nine tumour subpanels; assay: NCI SRB assay, panel and subpanel summaries; conditions: all cell lines
TK-10 = assay: NCI SRB assay; format: cell-based, human; conditions: TK-10, 1.00E-5 Molar
HOP-62 = assay: NCI SRB assay; format: cell-based, human

Compound: COc1ccc(-c2nc(Nc3ccccc3C(=O)O)c3ccccc3n2)cc1 [6c, 2-((2–(4-Methoxyphenyl)quinazolin-4-yl)amino)benzoic acid]
- GI% (SF-268; SF-268, 10 μM): 43%
- Growth Percent (SF-268; SF-268, 1.00E-5 Molar): 56.93%
- GI% (MCF7; MCF7, 10 μM): 49%
- Growth Percent (MCF7; MCF7, 1.00E-5 Molar): 51.24%
- GI% (SNB-19; SNB-19, 10 μM): 55%
- Growth Percent (SNB-19; SNB-19, 1.00E-5 Molar): 45.59%
- GI% (NCI-H226; NCI-H226, 10 μM): 47%
- Growth Percent (NCI-H226; NCI-H226, 1.00E-5 Molar): 53.45%
- GI% (KM12; KM12, 10 μM): 64%
- Growth Percent (KM12; KM12, 1.00E-5 Molar): 35.66%
- GI% (SNB-75; SNB-75, 10 μM): 68%
- Growth Percent (SNB-75; SNB-75, 1.00E-5 Molar): 32.48%
- GI% (NCI-H23; NCI-H23, 10 μM): 38%
- Growth Percent (NCI-H23; NCI-H23, 1.00E-5 Molar): 62.10%
- GI% (HCT-116; HCT-116, 10 μM): 62%
- Growth Percent (HCT-116; HCT-116, 1.00E-5 Molar): 37.54%
- GI% (SF-295; SF-295, 10 μM): 60%
- Growth Percent (SF-295; SF-295, 1.00E-5 Molar): 39.93%
- GI% (NCI-H460; NCI-H460, 10 μM): 89%
- Growth Percent (NCI-H460; NCI-H460, 1.00E-5 Molar): 11.57%
- GI% (NCI-H322M; 10 μM): 24%
- Growth Percent (NCI-H322M; 1.00E-5 Molar): 75.73%
- GI% (ACHN; 10 μM): 54%
- Growth Percent (ACHN; 1.00E-5 Molar): 46.21%
- GI% (EKVX; 10 μM): 66%
- Growth Percent (EKVX; 1.00E-5 Molar): 33.92%
- GI% (LOX IMVI; 10 μM): 50%
- Growth Percent (LOX IMVI; 1.00E-5 Molar): 49.53%
- Growth Percent (SN12C): 47.71%
- GI% (HT29; HT29, 10 μM): 37%
- Growth Percent (HT29; HT29, 1.00E-5 Molar): 63.13%
- GI% (OVCAR-4; OVCAR-4, 10 μM): 66%
- Growth Percent (OVCAR-4; OVCAR-4, 1.00E-5 Molar): 34.25%
- GI% (786-0; 786-0, 10 μM): 48%
- Growth Percent (786-0; 786-0, 1.00E-5 Molar): 51.90%
- GI% (K-562; K-562, 10 μM): 69%
- Growth Percent (K-562; K-562, 1.00E-5 Molar): 31.34%
- GI% (BT-549; BT-549, 10 μM): 62%
- Growth Percent (BT-549; BT-549, 1.00E-5 Molar): 37.53%
- GI% (T-47D; 10 μM): 71%
- Growth Percent (T-47D; 1.00E-5 Molar): 29.31%
- GI% (OVCAR-8; OVCAR-8, 10 μM): 40%
- Growth Percent (OVCAR-8; OVCAR-8, 1.00E-5 Molar): 60.14%
- GI% (SK-MEL-2; SK-MEL-2, 10 μM): 57%
- Growth Percent (SK-MEL-2; SK-MEL-2, 1.00E-5 Molar): 43.49%
- GI% (SK-OV-3; SK-OV-3, 10 μM): 53%
- Growth Percent (SK-OV-3; SK-OV-3, 1.00E-5 Molar): 47.19%
- GI% (CCRF-CEM; 10 μM): 58%
- Growth Percent (CCRF-CEM; 1.00E-5 Molar): 42.05%
- GI% (MOLT-4; MOLT-4, 10 μM): 64%
- Growth Percent (MOLT-4; MOLT-4, 1.00E-5 Molar): 36.24%
- Mean GI % ([1]; 10 μM): 52%
- Mean Growth Percent ([1]; 1.00E-5 Molar): 48.18%
- Growth Percent (TK-10): 74.99%
- GI% (HOP-62; HOP-62, 10 μM): 49%
- Growth Percent (HOP-62; HOP-62, 1.00E-5 Molar): 51.05%
